For 15 compounds, IC50 results are on record in US12173007B2, “Imidazopyridazine IL-17 inhibitor compounds” (Janssen Pharmaceutica NV, priority 2021, dated 2024).

Test [1] concerns the target IL-17A(FLAG-Tagged): IL-17RA(His-Tagged) binding (Homo sapiens, UniProt Q16552, K93Q). The test can be described thus: IL-17A(FLAG-tagged):IL-17RA(His-tagged) binding disruption Eu-HTRF assay, Protocol 2. Conditions: FLAG-IL-17A 1 nM; average if tested more than once. An excerpt: IL-17A(FLAG-Tagged): IL-17RA(His-Tagged) Binding Disruption Eu-HTRF Assay
An antibody directed against the FLAG tag of IL-17A (SEQ ID NO: 1) is labeled with the HTRF donor chromophore (Europium-cryptate). IL-17A is present as a dimer that is “locked into” this quaternary structure due to the formation of loop-spanning […] disulfide bridges. The construct of IL-17RA used in the assay excludes the […] portion of the receptor and is fused to a C-terminal 10×His tag (SEQ ID NO:2). An antibody directed against the His tag of the IL-17RA chimera is labeled with the HTRF acceptor chromophore (“D2”). The fluorescence-resonance energy transfer (FRET) depends on the vicinity of the donor chromophore to the acceptor, and interruption of the binding between the IL-17A and IL-17RA causes the reduction/loss of FRET. Therefore, this assay allows to evaluate the compound effect on the binding IL-17A and IL-17RA by monitoring the fluorescence intensity of donor vs acceptor. The assay was run using either Protocol 1 or Protocol 2 as described below.
Protocol 2. 40 nl of 2-fold serial diluted compound solution for total 22 dilution points is added into each well of a 1536-well, white, low-volume, non-binding plate (Greiner #782904), then 2 μl of FLAG tagged IL-17A at 2×final concentration (1 nM) in solution of PBS+0.01% Triton-X100 is added to each well. The assay plate is briefly centrifuged then incubated for 1 h at rt. A mixed solution is prepared containing 2×5 nM 10HIS×IL-17RA, 2×2.5 nM Eu-anti-FLAG (CISBIO), 2×5 nM D2-anti-HIS (CISBIO) in PBS+0.01% Triton-X100+200 mM Potassium Fluoride (Sigma 60238) and 2 μl of mix is added to each well of the assay plate. The plate is briefly centrifuged then incubated for 2 h at rt. The HTRF intensities at the wavelength of donor (615 nm) and acceptor (665 nm) are measured using BMG Pherastar. The ratio between intensities at two wavelengths is calculated and plotted against the compound concentration and the data is fitted to a one-site competition model to yield IC50 of the compound.

Test [2] concerns IL-17A-induced G-CSF production in human normal keratinocyte (NHK). Description: NHK assay: IL-17A-induced G-CSF production in normal human keratinocytes. Conditions: 24 h, IL-17A 5 ng/mL, G-CSF by HTRF, average if tested more than once. It is filed as cell-based. The method, then: IL-17A acts directly on keratinocytes through binding to dimeric receptor IL-17RA/RC and drives the production of a number of inflammatory mediators known to be elevated in psoriasis lesional tissue. IL-17A small molecule inhibitors that block the IL-17A to interact with IL-17R would inhibit the IL-17A signaling in its targeted cells such as keratinocytes. The compound functional activity is evaluated for its impact on IL-17A-induced G-CSF production in human normal keratinocyte (NHK).
Adult normal human keratinocytes are cultured in keratinocyte growth medium (Lonza) in a flask till reaching ˜90% confluence, then cells are transferred to a 384-well plate at density of 3000-4000 cell/well. Recombinant human IL-17A (Gibco PHC9174) is pre-incubated with titrated compound or DMSO for 1 h at rt then added to the cell culture plate. The final concentration of IL-17A is 5 ng/mL and DMSO is 0.2%, in the culture containing 5% FBS. Cells are cultured/treated for 24 h at 37° C. Supernatants are collected and G-CSF production is measured through HTRF technology using Human G-CSF Kit (CisBio). G-CSF concentration was extrapolated from the standard curve and IC50 is determined using GraphPad Prism. Cell viability is also evaluated using CellTiter-Glo kit (Promega) and effect of compound on cell viability is compared to DMSO control.

For orientation: IC50 means the midpoint of a concentration-inhibition curve.

Chain of UniProt Q16552 (Q16552 with tags, fused parts or gaps K93Q): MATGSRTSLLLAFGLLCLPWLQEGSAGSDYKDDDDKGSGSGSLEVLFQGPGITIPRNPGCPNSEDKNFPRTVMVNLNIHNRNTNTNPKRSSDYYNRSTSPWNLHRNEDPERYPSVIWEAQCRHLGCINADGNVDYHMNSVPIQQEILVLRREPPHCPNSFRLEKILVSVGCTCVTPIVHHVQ

On to `CC(C)(CC[C@H](NC(=O)c1nonc1C1CC1)c1cn2ncc(CN3C[C@H]4[C@@H](CNC3=O)C4(F)F)cc2n1)C(F)(F)F` (relative stereo) [Example 119, 4-Cyclopropyl-N—((S)-1-(7-(((1R*,7S*)-8,8-difluoro-4-oxo-3,5-diazabicyclo[5.1.0]octan-3-yl)methyl)imidazo[1,2-b]pyridazin-2-yl)-5,5,5-trifluoro-4,4-dimethylpentyl)-1,2,5-oxadiazole-3-carboxamide], for which the IC50 in test [1] was less than 50 nM; in test [2] (Homo sapiens, Keratinocyte), less than 50 nM. With `[2H]C1([2H])NC(=O)N([C@H](COC2CC2)c2cnn3cc([C@H](CCC(C)(C)C(F)(F)F)NC(=O)c4nonc4C)nc3c2)C([2H])([2H])C1(F)F` [Example 76, N—((S)-1-(7-((S)-2-Cyclopropoxy-1-(5,5-difluoro-2-oxotetrahydropyrimidin-1(2H)-yl-4,4,6,6-d4)ethyl)imidazo[1,2-b]pyridazin-2-yl)-5,5,5-trifluoro-4,4-dimethylpentyl)-4-methyl-1,2,5-oxadiazole-3-carboxamide], the IC50 in test [1] was less than 50 nM; in test [2] (Homo sapiens, Keratinocyte) it was less than 50 nM. In test [2] (Homo sapiens, Keratinocyte), `Cc1nonc1C(=O)N[C@H](c1cn2ncc([C@@H](C3CC3)N3CCC4(CC4)NC3=O)cc2n1)C1CCC(F)(F)CC1` [Example 47, N—[(S)-[7-[(R)-Cyclopropyl-(7-oxo-6,8-diazaspiro[2.5]octan-6-yl)methyl]imidazo[1,2-b]pyridazin-2-yl]-(4,4-difluorocyclohexyl)methyl]-4-methyl-1,2,5-oxadiazole-3-carboxamide] returned an IC50 greater than 100 nM. On the same count and under the same terms, the figure for `COC[C@H](c1cnn2cc([C@@H](NC(=O)c3nonc3C)[C@@H](C)OC(C)(C)C(F)(F)F)nc2c1)N1CC(F)(F)CNC1=O` (relative stereo) [Example 60, N-((1R*,2R*)-1-(7-((S)-1-(5,5-Difluoro-2-oxotetrahydropyrimidin-1(2H)-yl)-2-methoxyethyl)imidazo[1,2-b]pyridazin-2-yl)-2-((1,1,1-trifluoro-2-methylpropan-2-yl)oxy)propyl)-4-methyl-1,2,5-oxadiazole-3-carboxamide] is less than 50 nM; for `COC[C@H](c1cnn2cc([C@H](COC(C)(C)C(F)(F)F)NC(=O)c3nonc3C3CC3)nc2c1)N1CC(F)(F)CNC1=O` [Example 64, 4-Cyclopropyl-N—((R)-1-(7-((S)-1-(5,5-difluoro-2-oxotetrahydropyrimidin-1(2H)-yl)-2-methoxyethyl)imidazo[1,2-b]pyridazin-2-yl)-2-((1,1,1-trifluoro-2-methylpropan-2-yl)oxy)ethyl)-1,2,5-oxadiazole-3-carboxamide] it is less than 50 nM; for `CC(C)(C[C@H](NC(=O)c1nonc1C1CC1)c1cn2ncc([C@@H](COC3CC3)N3CC(F)(F)CNC3=O)cc2n1)C(F)(F)F` [Example 44, N—((S)-1-(7-((S)-2-Cyclopropoxy-1-(5,5-difluoro-2-oxotetrahydropyrimidin-1(2H)-yl)ethyl)imidazo[1,2-b]pyridazin-2-yl)-4,4,4-trifluoro-3,3-dimethylbutyl)-4-cyclopropyl-1,2,5-oxadiazole-3-carboxamide] it is less than 50 nM. Same read-out and setting: the figure for `Cc1nocc1C(=O)N[C@H](c1cn2ncc([C@@H](COC3CC3)N3CC(F)(F)CNC3=O)cc2n1)C1CCC(F)(F)CC1` [Example 38, N—((S)-(7-((S)-2-Cyclopropoxy-1-(5,5-difluoro-2-oxotetrahydropyrimidin-1(2H)-yl)ethyl)imidazo[1,2-b]pyridazin-2-yl)(4,4-difluorocyclohexyl)methyl)-3-methylisoxazole-4-carboxamide] is less than 50 nM; for `Cc1nonc1C(=O)N[C@@H](CC(C)(C)C(F)(F)F)c1cn2ncc([C@@H](COC3CC3)N3CC(F)(F)CNC3=O)cc2n1` [Example 50, N—((S)-1-(7-((S)-2-Cyclopropoxy-1-(5,5-difluoro-2-oxotetrahydropyrimidin-1(2H)-yl)ethyl)imidazo[1,2-b]pyridazin-2-yl)-4,4,4-trifluoro-3,3-dimethylbutyl)-4-methyl-1,2,5-oxadiazole-3-carboxamide] it is less than 50 nM. As for “4-Cyclopropyl-N—((R)-1-(7-((S)-1-(5,5-difluoro-2-oxotetrahydropyrimidin-1(2H)-yl-4,4,6,6-d4)-2-methoxyethyl)imidazo[1,2-b]pyridazin-2-yl)-2-((1,1,1-trifluoro-2-methylpropan-2-yl)oxy)ethyl)-1,2,5-oxadiazole-3-carboxamide [Example 39]”, the IC50 in test [2] is less than 50 nM. Turning to `Cc1nonc1C(=O)N[C@H](c1cn2ncc(C(COC(C)C)N3CC(F)(F)CNC3=O)cc2n1)C1CCC(F)(F)CC1` (single isomer, unassigned) [Example 58, N—((S)-(7-((S*)-1-(5,5-Difluoro-2-oxotetrahydropyrimidin-1(2H)-yl)-2-isopropoxyethyl)imidazo[1,2-b]pyridazin-2-yl)(4,4-difluorocyclohexyl)methyl)-4-methyl-1,2,5-oxadiazole-3-carboxamide], in test [2] (Homo sapiens, Keratinocyte), the IC50 was less than 50 nM. The same measure, in the same setting: the figure for `COC[C@H](c1cnn2cc([C@@H](CCC(C)(C)C(F)(F)F)NC(=O)c3nonc3C)nc2c1)N1CC(F)(F)CNC1=O` [Example 67, N—((R)-1-(7-((S)-1-(5,5-Difluoro-2-oxotetrahydropyrimidin-1(2H)-yl)-2-methoxyethyl)imidazo[1,2-b]pyridazin-2-yl)-5,5,5-trifluoro-4,4-dimethylpentyl)-4-methyl-1,2,5-oxadiazole-3-carboxamide] is greater than 100 nM.

For the compound `COC[C@H](c1cnn2cc([C@H](CC(C)(C)C(F)(F)F)NC(=O)c3nonc3C)nc2c1)N1CC(F)(F)CNC1=O` [Example 66, N—((S)-1-(7-((S)-1-(5,5-Difluoro-2-oxotetrahydropyrimidin-1(2H)-yl)-2-methoxyethyl)imidazo[1,2-b]pyridazin-2-yl)-4,4,4-trifluoro-3,3-dimethylbutyl)-4-methyl-1,2,5-oxadiazole-3-carboxamide], the IC50 in test [2] (Homo sapiens, Keratinocyte) lay in the range of 50 to 100 nM. The same measure, in the same setting: for `COC[C@H](c1cnn2cc([C@@H](NC(=O)c3nonc3C)[C@@H](C)O[C@H](C)C(F)(F)F)nc2c1)N1CC(F)(F)CNC1=O` [Example 53, N-((1R,2R)-1-(7-((S)-1-(5,5-Difluoro-2-oxotetrahydropyrimidin-1(2H)-yl)-2-methoxyethyl)imidazo[1,2-b]pyridazin-2-yl)-2-(((R)-1,1,1-trifluoropropan-2-yl)oxy)propyl)-4-methyl-1,2,5-oxadiazole-3-carboxamide] the value was less than 50 nM; for `COC[C@H](c1cnn2cc([C@@H](NC(=O)c3nonc3C3CC3)[C@H]3[C@@H]4CC(F)(F)C[C@@H]43)nc2c1)N1CC(F)(F)CNC1=O` (relative stereo) [Example 51, 4-Cyclopropyl-N—((S*)-(7-((S)-1-(5,5-difluoro-2-oxotetrahydropyrimidin-1(2H)-yl)-2-methoxyethyl)imidazo[1,2-b]pyridazin-2-yl)((1R,5S,6r)-3,3-difluorobicyclo[3.1.0]hexan-6-yl)methyl)-1,2,5-oxadiazole-3-carboxamide], less than 50 nM; for `C[C@H](c1cnn2cc([C@H](CC(C)(C)C(F)(F)F)NC(=O)c3nonc3C3CC3)nc2c1)N1CC(F)(F)CNC1=O` [Example 88, 4-Cyclopropyl-N—((S)-1-(7-((R)-1-(5,5-difluoro-2-oxotetrahydropyrimidin-1(2H)-yl)ethyl)imidazo[1,2-b]pyridazin-2-yl)-4,4,4-trifluoro-3,3-dimethylbutyl)-1,2,5-oxadiazole-3-carboxamide], less than 50 nM.
